Measurements taken from ChEMBL document CHEMBL4229331, “Synthesis and biological evaluation of 173-dicarboxylethyl-pyropheophorbide-a amide derivatives for photodynamic therapy” (Bioorg Med Chem Lett, 2018).
Active and inactive are the calls of the source. No cut-off for these calls is given here.

Key:
[1] = […] assessed as singlet oxygen release by measuring DPBF oxidation rate in presence of 650 nm light by UV-vis spectrophotometer; type: functional
[2] = Octanol/water partition coefficient, log P of the compound by shake-flask method; type: physicochemical
[3] = Dark toxicity in human ECA109 cells assessed as decrease in cell viability up to 1 uM after 24 hrs by MTT assay; type: cell-based; settings: eca-109, 24 h
[4] = Dark toxicity in human ECA109 cells assessed as cell viability at 5 uM after 24 hrs by MTT assay (reference value: 80%); type: cell-based, ECa-109; settings: read-out: Activity
ECa-109 cell line [5] = assay: Photocytotoxicity against human ECA109 cells assessed as decrease in cell viability at 1 uM preincubated for 24 hrs followed by laser irradiation at 1 to 32 J/Cm'2 by MTT assay; type: functional, cell-based
[6] = Drug uptake in cytoplasm of human ECA109 cells at 5 uM incubated for 4 hrs in dark condition by Hoechst 33342 staining-based confocal fluorescence microscopy; type: ADME, subcellular; settings: eca-109, 4 h
[7] = Drug uptake in nuclear membrane of human ECA109 cells at 5 uM incubated for 4 hrs in dark condition by Hoechst 33342 staining-based confocal fluorescence microscopy; type: ADME, cell membranes; settings: eca-109, 4 h
ECa-109 cell line [8] = assay: Induction of apoptosis in human ECA109 cells assessed as early apoptotic cells at 1 uM preincubated for 24 hrs followed by laser irradiation at 16 J/cm'2 and measured after 24 hrs by annexin V/propidium iodide staining-based flow cytometric method (reference value: 2.45%); type: functional
ECa-109 cell line [9] = assay: Induction of apoptosis in human ECA109 cells assessed as late apoptotic/necrotic cells at 1 uM preincubated for 24 hrs followed by laser irradiation at 16 J/cm'2 and measured after 24 hrs by annexin V/propidium iodide staining-based flow cytometric method (reference value: 0.08%); type: functional
ECa-109 cell line [10] = assay: Induction of apoptosis in human ECA109 cells assessed as early apoptotic cells at 5 uM preincubated for 24 hrs followed by laser irradiation at 16 J/cm'2 and measured after 24 hrs by annexin V/propidium iodide staining-based flow cytometric method (reference value: 2.45%); type: functional
ECa-109 cell line [11] = assay: Induction of apoptosis in human ECA109 cells assessed as late apoptotic/necrotic cells at 5 uM preincubated for 24 hrs followed by laser irradiation at 16 J/cm'2 and measured after 24 hrs by annexin V/propidium iodide staining-based flow cytometric method (reference value: 0.08%); type: functional
ECa-109 cell line [12] = assay: Induction of apoptosis in human ECA109 cells assessed as increase in late apoptotic/necrotic cells preincubated for 24 hrs followed by laser irradiation at 16 J/cm'2 and measured after 24 hrs by annexin V/propidium iodide staining-based flow cytometric method; type: functional, cell-based
ECa-109 cell line [13] = assay: Antitumor activity against human ECA109 cells xenografted in BALB/c nude mouse assessed as decrease in tumor volume at 3 mg/kg, iv measured at 3 to 21 days post treatment in presence of 100 J/cm2 laser irradiation; type: functional, organism-based
ECa-109 cell line [14] = assay: Decrease in tumor volume in human ECA109 cells xenografted in BALB/c nude mouse at 3 mg/kg, iv measured at 21 days post treatment in absence of laser irradiation; type: ADME, organism-based; settings: in vivo, 504 h

Compound | K [1] | logP [2] | Activity [3] | viability at 24 h, 5 µM [4] | Activity (ECa-109 cell line [5]) | Drug uptake [6] | Drug uptake [7] | Activity (ECa-109 cell line [8]) | Activity (ECa-109 cell line [9]) | Activity (ECa-109 cell line [10]) | Activity (ECa-109 cell line [11]) | Activity (ECa-109 cell line [12]) | Activity (ECa-109 cell line [13]) | Activity (ECa-109 cell line [14])
C=Cc1c(C)c2cc3nc(c4c5[nH]c(cc6nc(cc1[nH]2)C(C)=C6CC)c(C)c5C(=O)C4)[C@@H](CCC(=O)O)[C@@H]3C | 0.0578 min⁻¹ | – | – | – | – | – | – | – | – | – | – | – | – | –
C=Cc1c(C)c2cc3nc(c4c5[nH]c(cc6nc(cc1[nH]2)C(C)=C6CC)c(C)c5C(=O)C4)[C@@H](CCC(=O)N(CCC(=O)OC)CCC(=O)OC)[C@@H]3C | – | 3.3 | – | – | – | – | – | – | – | – | – | – | – | –
CCC1=C(C)c2cc3[nH]c(cc4nc(c5c6[nH]c(cc1n2)c(C)c6C(=O)C5)[C@@H](CCC(=O)N(CCC(=O)O)CCC(=O)O)[C@@H]4C)c(C)c3C(C)OC (stereo partly specified) | 0.0596 min⁻¹ | 2.3 | Non-Toxic | 50% | Active | Active | Active | 7.38% | 60.46% | 5.41% | 81.22% | Dose-dependent effect | Active | Non-Toxic
CCCOC(C)c1c(C)c2cc3nc(c4c5[nH]c(cc6nc(cc1[nH]2)C(C)=C6CC)c(C)c5C(=O)C4)[C@@H](CCC(=O)N(CCC(=O)O)CCC(=O)O)[C@@H]3C (stereo partly specified) | 0.0266 min⁻¹ | 2.7 | Non-Toxic | 50% | Active | – | – | – | – | – | – | – | – | –
CCCCCOC(C)c1c(C)c2cc3nc(c4c5[nH]c(cc6nc(cc1[nH]2)C(C)=C6CC)c(C)c5C(=O)C4)[C@@H](CCC(=O)N(CCC(=O)O)CCC(=O)O)[C@@H]3C (stereo partly specified) | 0.0241 min⁻¹ | 3.1 | Non-Toxic | 50% | Active | – | – | – | – | – | – | – | – | –
